The nature of data set [1]: Distinction between the basic, acidic and neutral natures of substance. It counts as physicochemical.
For data set [2], the system named is Candida albicans 3147. Briefly: MIC by standard serial dilution method (fungi). The data set is classed as cell-based. To be noted: dexylosylbenanomicin B as hydrochloride.
The test system of data set [3] is Escherichia coli NIHJ. Briefly: MIC by standard serial dilution method (bacteria).
The subject of data set [4] is Pellicularia sasakii. Kind of data set: MIC by standard serial dilution method (fungi). It counts as cell-based. The note with it: dexylosylbenanomicin B as hydrochloride.
Data set [5] concerns Candida pseudotropicalis F-2. Briefly: MIC by standard serial dilution method (fungi). The data set is classed as cell-based. To be noted: Kluyveromyces marxianus, F2.
Data set [6] concerns Candida Yu-1200. Briefly: MIC by standard serial dilution method (fungi). The data set is classed as cell-based. To be noted: YU1200, dexylosylbenanomicin B as hydrochloride.
Data set [7] relates to Candida tropicalis F-1. Kind of data set: MIC by standard serial dilution method (fungi). It counts as cell-based. To be noted: F1, dexylosylbenanomicin B as hydrochloride.
The subject of data set [8] is Salmonella typhi T-63. Kind of data set: MIC by standard serial dilution method (bacteria). To be noted: Salmonella enterica.
Data set [9] relates to Candida albicans. Briefly: therapeutic effect on experimental Candida infection in mice. The note with it: 3 times (0, 6, 24 h).
Data set [10] concerns Cryptococcus neoformans F-10. Kind of data set: MIC by standard serial dilution method (fungi). It counts as cell-based.
Data set [11] has as its system Mycobacterium smegmatis ATCC607. Briefly: MIC by standard serial dilution method (bacteria). The note with it: Mycolicibacterium smegmatis.
The test system of data set [12] is Staphylococcus aureus Smith. Briefly: MIC by standard serial dilution method (bacteria).
For data set [13], the system named is various kinds of fungi. Briefly: antifungal activity, summary of Table 2. It counts as cell-based. To be noted: as revealed from Table 2. An excerpt:
4. Antibacterial and antifungal activities of benanomicin A, benanomicin B and dexylosylbenanomicn B (as the hydrochloride) are described below.

Data set [14] relates to Cochliobolus miyabeanus. Kind of data set: MIC by standard serial dilution method (fungi). The data set is classed as cell-based. The note with it: Bipolaris oryzae.
The test system of data set [15] is Pyricularia oryzae. Briefly: microbe, parasite or virus in culture. The data set is classed as cell-based.
For data set [16], the system named is Proteus vulgaris OX19. Kind of data set: MIC by standard serial dilution method (bacteria).
Data set [17] has as its system Aspergillus niger. Briefly: MIC by standard serial dilution method (fungi). It counts as cell-based. To be noted: dexylosylbenanomicin B as hydrochloride.
In data set [18] the test system is Xanthomonas oryzae. Kind of data set: microbe, parasite or virus in culture. It counts as cell-based.
Data set [19] concerns Bacillus subtilis PCI219. Kind of data set: MIC by standard serial dilution method (bacteria).
Data set [20] is described as follows: Solubility.
Data set [21] concerns Staphylococcus aureus FDA209P. Briefly: MIC by standard serial dilution method (bacteria).
For data set [22], the system named is Shigella dysenteriae JS11910. Briefly: MIC by standard serial dilution method (bacteria).
In data set [23] the test system is Pseudomonas aeruginosa A3. Briefly: MIC by standard serial dilution method (bacteria).
Data set [24] deals with Saccharomyces cerevisiae F-7. Kind of data set: MIC by standard serial dilution method (fungi). It counts as cell-based. The note with it: F7, dexylosylbenanomicin B as hydrochloride.
The subject of data set [25] is Micrococcus luteus FDA16. Briefly: MIC by standard serial dilution method (bacteria).
The test system of data set [26] is Candida krusei F-5. Briefly: MIC by standard serial dilution method (fungi). It counts as cell-based. The note with it: Pichia kudriavzevii, F5, dexylosylbenanomicin B as hydrochloride.
Data set [27] has as its system Klebsiella pneumoniae PCI602. Briefly: MIC by standard serial dilution method (bacteria).
Data set [28] in a line: in vivo. To be noted: mouse, iv.
Data set [29] concerns Xanthomonas citri. Briefly: MIC by standard serial dilution method. It counts as cell-based.
For data set [30], the system named is Trichophyton asteroides 429. Kind of data set: MIC by standard serial dilution method (fungi). The data set is classed as cell-based. The note with it: dexylosylbenanomicin B as hydrochloride.
In data set [31] the test system is Jcl:ICR-strain mice. The note with it: mouse, in vivo, iv, 600 mg/kg.
Data set [32] concerns Trichophyton mentagrophytes (883). Briefly: MIC by standard serial dilution method (fungi). It counts as cell-based. The note with it: dexylosylbenanomicin B as hydrochloride.
Data set [33] relates to Corynebacterium bovis 1810. Kind of data set: MIC by standard serial dilution method (bacteria).
The test system of data set [34] is Escherichia coli K-12. Briefly: MIC by standard serial dilution method (bacteria). To be noted: K12.
Where [35] appears, read: Candida pseudotropicalis F-2, dexylosylbenanomicin B as hydrochloride, read-out: MIC.

In brackets after ≈: the same amount, converted by molar mass. Where a name gives a salt, the structure may show the parent alone. Read-outs that look alike come from different tables or passages of the source.

`COc1cc(O)c2c(c1)C(=O)c1c(cc3c(c1O)-c1c(cc(C)c(C(=O)N[C@H](C)C(=O)O)c1O)C(O[C@@H]1O[C@H](C)[C@H](O)[C@H](O[C@@H]4OC[C@@H](O)[C@H](O)[C@H]4O)[C@H]1O)C3O)C2=O` (stereo partly shown) [Benanomicin A]: in data set [1], the “Distinction between the basic, acidic and neutral natures of substance” value (“Distinction between the basic” for short) is given as “Acidic substance”. The MIC in data set [2] is 25 µg/mL (≈ 30.2 µM); in data set [3], more than 100 µg/mL; in data set [4], 25 µg/mL (≈ 30.2 µM); in data set [5] (setting [35]), 6.25 µg/mL (≈ 7.55 µM); in data set [6], 12.5 µg/mL (≈ 15.1 µM); in data set [7], 25 µg/mL (≈ 30.2 µM). Besides, the MIC in data set [8] was more than 100 µg/mL; in [10] (F10, read-out: MIC) it was 3.12 µg/mL (≈ 3.77 µM); in [11], more than 100 µg/mL; in data set [12], more than 100 µg/mL; in data set [14], more than 100 µg/mL; in data set [15], 25 µg/mL (≈ 30.2 µM). Further, the MIC is more than 100 µg/mL in [16]; 50 µg/mL (≈ 60.4 µM) in [17]; more than 100 µg/mL in data set [18]; more than 100 µg/mL in data set [19]; 100 µg/mL (≈ 121 µM) in data set [21]; more than 50 µg/mL in data set [22]. In addition, the MIC is more than 50 µg/mL in data set [23]; 6.25 µg/mL (≈ 7.55 µM) in data set [24]; 12.5 µg/mL (≈ 15.1 µM) in [25]; 6.25 µg/mL (≈ 7.55 µM) in [26]; more than 100 µg/mL in data set [27]; more than 100 µg/mL in data set [29]. Besides, the MIC in data set [30] was 50 µg/mL (≈ 60.4 µM); in [32], 50 µg/mL (≈ 60.4 µM); in data set [33] it was 12.5 µg/mL (≈ 15.1 µM); in [34] it was more than 100 µg/mL. The “Number of surviving mice” value in [9] (0.2 mg/mouse, subcutaneous) is 0/5; in data set [9] (0.3 mg/mouse, subcutaneous), 2/5; in [9] (0.4 mg/mouse, subcutaneous), 1/5; in data set [9] (0.8 mg/mouse, subcutaneous), 5/5; in data set [9] (1.5 mg/mouse, oral) it was 0/5; in [9] (3.0 mg/mouse, oral) it was 0/5. The “Number of surviving mice” value in data set [9] (6.0 mg/mouse, oral) was 3/5; in data set [9] (12.0 mg/mouse, oral) it was 3/5. The “Percent of the number of surviving mice against the tested mice” value in data set [9] (0.2 mg/mouse, subcutaneous) was 0%; in data set [9] (0.3 mg/mouse, subcutaneous), 40%; in data set [9] (0.4 mg/mouse, subcutaneous), 20%; in data set [9] (0.8 mg/mouse, subcutaneous), 100%; in [9] (1.5 mg/mouse, oral), 0%; in data set [9] (3.0 mg/mouse, oral), 0%. Also, the “Percent of the number of surviving mice against the tested mice” value in data set [9] (6.0 mg/mouse, oral) was 60%; in [9] (12.0 mg/mouse, oral), 60%. In addition, in data set [13], the “antifungal activities against various kinds of fungi” value (“antifungal activities” below) is on record as “substantial antifungal activities”. Further, the Solubility result is given as “Only sparingly soluble” in data set [20] (acetone); “soluble” in data set [20] (alkaline water); “Only sparingly soluble” in [20] (chloroform); “soluble” in data set [20] (dimethylformamide); “soluble” in data set [20] (dimethylsulfoxide); “Only sparingly soluble” in data set [20] (ethyl acetate). Besides, the results for the Solubility entry in data set [20] (methanol) and in data set [20] (water) were “Only sparingly soluble” and “insoluble”, respectively. This compound also yielded an MTD in data set [28] of 600 mg/kg. Moreover, in data set [31], the mice killed result is recorded as “none of the mice was killed”.
With `COc1cc(O)c2c(c1)C(=O)c1c(cc3c(c1O)-c1c(cc(C)c(C(=O)N[C@H](C)C(=O)O)c1O)[C@H](O[C@@H]1O[C@H](C)[C@H](N)[C@H](O[C@@H]4OC[C@@H](O)[C@H](O)[C@H]4O)[C@H]1O)[C@H]3O)C2=O` [Benanomicin B hydrochloride], the “Distinction between the basic” value in data set [1] is on record as “Amphoteric substance”. For the same compound, the Solubility entry in data set [20] (acetone) is “Only sparingly soluble”; in data set [20] (chloroform) it was “Only sparingly soluble”; in data set [20] (dimethylformamide) it was “soluble”; in data set [20] (dimethylsulfoxide) it was “soluble”; in data set [20] (ethyl acetate), “Only sparingly soluble”; in data set [20] (methanol), “soluble”. For the same compound, the Solubility entry in [20] (water) was “soluble”.
Turning to `COc1cc(O)c2c(c1)C(=O)c1c(cc3c(c1O)-c1c(cc(C)c(C(=O)N[C@H](C)C(=O)O)c1O)C(O[C@@H]1O[C@H](C)[C@H](N)[C@H](O[C@@H]4OC[C@@H](O)[C@H](O)[C@H]4O)[C@H]1O)C3O)C2=O` (stereo partly shown) [Benanomicin B], the MIC in [2] was 25 µg/mL (≈ 30.2 µM); in data set [3], more than 100 µg/mL; in data set [4] it was 50 µg/mL (≈ 60.5 µM); in [5] (setting [35]), 6.25 µg/mL (≈ 7.56 µM); in [6], 12.5 µg/mL (≈ 15.1 µM); in [7] it was more than 100 µg/mL. Further, the MIC in data set [8] is more than 100 µg/mL; in data set [10] (F10, read-out: MIC), 1.56 µg/mL (≈ 1.89 µM); in [11], more than 100 µg/mL; in data set [12] it was more than 100 µg/mL; in data set [14], more than 100 µg/mL; in data set [15], 50 µg/mL (≈ 60.5 µM). Further, the MIC in [16], in data set [17], in data set [18], in data set [19], in data set [21] and in data set [22] was more than 100 µg/mL in each case. Further, the MIC in data set [23] is more than 100 µg/mL; in data set [24], 12.5 µg/mL (≈ 15.1 µM); in [25] it was 3.12 µg/mL (≈ 3.77 µM); in data set [26], 6.25 µg/mL (≈ 7.56 µM); in data set [27] it was more than 100 µg/mL; in [29] it was more than 100 µg/mL. Further, the MIC is 25 µg/mL (≈ 30.2 µM) in data set [30], 25 µg/mL (≈ 30.2 µM) in [32], 3.12 µg/mL (≈ 3.77 µM) in [33] and more than 100 µg/mL in [34]. The “antifungal activities” value in data set [13] was “substantial antifungal activities”. In addition, in data set [28], the MTD is 100 mg/kg.
For the compound `COc1cc(O)c2c(c1)C(=O)c1c(cc3c(c1O)-c1c(cc(C)c(C(=O)N[C@H](C)C(=O)O)c1O)C(O[C@@H]1O[C@H](C)[C@H](N)[C@H](O)[C@H]1O)C3O)C2=O` (stereo partly shown) [Dexylosylbenanomicin B hydrochloride], in data set [1], the “Distinction between the basic” value was “Amphoteric substance”.
As to `COc1cc(O)c2c(c1)C(=O)c1c(cc3c(c1O)-c1c(cc(C)c(C(=O)N[C@H](C)C(=O)O)c1O)C(O[C@@H]1O[C@H](C)[C@H](N)[C@H](O)[C@H]1O)C3O)C2=O` (stereo partly shown) [Dexylosylbenanomicin B], the MIC in [2] is 6.25 µg/mL (≈ 9 µM); in [4], 25 µg/mL (≈ 36 µM); in data set [5] it was 3.13 µg/mL (≈ 4.51 µM); in data set [6], 6.25 µg/mL (≈ 9 µM); in [7], 6.25 µg/mL (≈ 9 µM); in data set [10] (F10) it was 3.13 µg/mL (≈ 4.51 µM). Further, the MIC in data set [14] was found to be 50 µg/mL (≈ 72 µM); in data set [15] it was 25 µg/mL (≈ 36 µM); in data set [17], 25 µg/mL (≈ 36 µM); in data set [18] it was 100 µg/mL (≈ 144 µM); in data set [24], 6.25 µg/mL (≈ 9 µM); in data set [26] it was 12.5 µg/mL (≈ 18 µM). Also, the results for the MIC in data set [29], in [30] and in data set [32] were 100 µg/mL (≈ 144 µM), 50 µg/mL (≈ 72 µM) and 50 µg/mL (≈ 72 µM), respectively. Besides, in [13], the “antifungal activities” value was “substantial antifungal activities”. In [28], this compound had an MTD of 100 mg/kg.

Values taken from patent US5278052A, “Process for the simultaneous production of benanomicins A and B” (Zaidan Hojin Biseibutsu Kagaku Kenkyu Kai, priority 1987, dated 1994).
